In the test the target is T1, human ferroportin (Homo sapiens, UniProt Q9NP59).
T1 construct: luciferase reporter (probably NanoLuc, inferred from the Nano-Glo Luciferase Assay System read-out); expressed in transfected cells; host or cells: CHO cells, stably transfected, expression induced with doxycycline
T1 sequence (Q9NP59 1-571): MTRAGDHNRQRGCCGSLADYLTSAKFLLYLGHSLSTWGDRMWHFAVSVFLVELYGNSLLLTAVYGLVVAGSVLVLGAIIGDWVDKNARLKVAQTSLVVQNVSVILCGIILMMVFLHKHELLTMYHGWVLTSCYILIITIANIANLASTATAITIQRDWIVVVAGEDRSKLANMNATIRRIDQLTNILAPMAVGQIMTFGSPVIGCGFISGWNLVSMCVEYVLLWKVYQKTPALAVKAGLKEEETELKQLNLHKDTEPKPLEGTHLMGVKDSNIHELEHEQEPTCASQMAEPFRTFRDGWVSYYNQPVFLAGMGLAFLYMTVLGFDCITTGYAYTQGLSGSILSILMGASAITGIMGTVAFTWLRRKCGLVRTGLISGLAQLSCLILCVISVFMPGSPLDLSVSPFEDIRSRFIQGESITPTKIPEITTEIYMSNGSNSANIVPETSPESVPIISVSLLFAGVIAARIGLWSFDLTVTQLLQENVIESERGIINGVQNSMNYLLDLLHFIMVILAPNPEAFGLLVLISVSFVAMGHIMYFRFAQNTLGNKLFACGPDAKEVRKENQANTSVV
The test is described as follows: In-vitro ferroportin internalization assay (luciferase reporter). Format: cell-based. To be noted: average pEC50; stably-transfected CHO cell line expressing human ferroportin tagged to a luciferase reporter; 6 h incubation with test compound. Here is the method: The protocol for this assay is generally as described in WO2018/128828, incorporated herein by reference in its entirety. Functional internalization of ferroportin protein was measured using a stably-transfected CHO cell line expressing the human ferroportin tagged to a luciferase reporter. Cells were plated for 24 h in the presence of ferric ammonium citrate (FAC). Ferroportin protein expression was induced with doxycycline for 24 h. The next day, the compounds were added. Test compounds were dissolved in DMSO. Cells were incubated with the test compounds for 6 h, and subsequently luciferase activity was measured using the Nano-Glo Luciferase Assay System and Glomax (Promega, Madison, Wis.). The average pEC50 was determined for the test compounds.
As for `COc1ccnc(-c2nc3c(c(N(C)CC(=O)N[C@H]4CCC[C@H]4O)n2)CCC3)c1` (single isomer, unassigned) [Compound 171], the pEC50 – broadly, the negative decadic logarithm of the EC50, by convention in mol/L – is 7.2. Under `COc1ccnc(-c2nc3c(c(N(C)CC(=O)N[C@H]4CCC[C@@H]4O)n2)CCC3)c1` (single isomer, unassigned) [Compound 173] stands 6.8. Regarding `COc1ccc(NC(=O)C(C(C)C)N(C)c2nc(-c3ccccn3)nc3c2CCC3)cn1` (single isomer, unassigned) [Compound 316], the pEC50 was determined as 7.2. Under `CC(C)C(C(=O)Nc1cnn(C)c1)N(C)c1nc(-c2ccccn2)nc2c1CCC2` (single isomer, unassigned) [Compound 317] stands 7.1.

With `CC(C)[C@@H](C(=O)Nc1cnn(C)c1)N(C)c1nc(-c2ccccn2)nc2c1CCC2` (single isomer, unassigned) [Compound 318], the pEC50 is given as 7.2. Under `CN(CC(=O)Nc1cccc(F)c1)c1nc(-c2ccccn2)nc2c1CCC2` [Compound 74, N-(3-fluorophenyl)-2-{methyl[2-(pyridin-2-yl)-5H,6H,7H-cyclopenta[d]pyrimidin-4-yl]amino}acetamide] stands 7.5; under `COc1ccnc(-c2nc3c(c(N(C)CC(=O)NC(C)(C)CO)n2)CCC3)c1` [Compound 136, N-(1-hydroxy-2-methylpropan-2-yl)-2-{[2-(4-methoxypyridin-2-yl)-5H,6H,7H-cyclopenta[d]pyrimidin-4-yl](methyl)amino}acetamide], 7.6; under `CN(CC(=O)NC(C)(C)C)c1nc(-c2cccnn2)nc2c1CCC2` [Compound 175, N-tert-butyl-2-{methyl[2-(pyridazin-3-yl)-5H,6H,7H-cyclopenta[d]pyrimidin-4-yl]amino}acetamide], under 5.0.

Compound `COCCN(C)c1nc(-c2ccccn2)nc2sc(C)c(C)c12` [Compound 179, N-(2-methoxyethyl)-N,5,6-trimethyl-2-(pyridin-2-yl)thieno[2,3-d]pyrimidin-4-amine] returned a pEC50 of 6.9. Under `Cc1sc2nc(-c3ccccn3)nc(N(C)CCN3CCCC3=O)c2c1C` [Compound 180, 1-(2-{[5,6-dimethyl-2-(pyridin-2-yl)thieno[2,3-d]pyrimidin-4-yl](methyl)amino}ethyl)pyrrolidin-2-one] stands 6.1; under `COc1ccc(NC(=O)CN(C)c2nc(-c3ccccn3)nc3sc(C)c(C)c23)cc1` [Compound 181, 2-{[5,6-dimethyl-2-(pyridin-2-yl)thieno[2,3-d]pyrimidin-4-yl](methyl)amino}-N-(4-methoxyphenyl)acetamide], 7.2.

Regarding `Cc1sc2nc(-c3ccccn3)nc(N(C)CC(=O)Nc3ccccc3)c2c1C` [Compound 182, 2-{[5,6-dimethyl-2-(pyridin-2-yl)thieno[2,3-d]pyrimidin-4-yl](methyl)amino}-N-phenylacetamide], the pEC50 is given as 7. Under `Cc1sc2nc(-c3ccccn3)nc(N(C)CC(=O)Nc3cccnc3)c2c1C` [Compound 183, 2-{[5,6-dimethyl-2-(pyridin-2-yl)thieno[2,3-d]pyrimidin-4-yl](methyl)amino}-N-(pyridin-3-yl)acetamide] stands 7.1; under `Cc1sc2nc(-c3ccccn3)nc(N(C)CC(=O)N(C)C)c2c1C` [Compound 184, 2-{[5,6-dimethyl-2-(pyridin-2-yl)thieno[2,3-d]pyrimidin-4-yl](methyl)amino}-N,N-dimethylacetamide], 6.9; under `CN(c1nc(-c2ccccn2)nc2c1CCC2)C1CCc2ccccc21` (centres unmarked) [Compound 185, N-(2,3-dihydro-1H-inden-1-yl)-N-methyl-2-(pyridin-2-yl)-5H,6H,7H-cyclopenta[d]pyrimidin-4-amine], 6.3.

Regarding `O=C(O)CCCCCNc1nc(-c2ccccn2)nc2c1CCC2` [Compound 186, 6-{[2-(pyridin-2-yl)-5H,6H,7H-cyclopenta[d]pyrimidin-4-yl]amino}hexanoic acid], the pEC50 turned out to be 5.3. On to `c1ccc(-c2nc3c(c(N4CCCOC5CCCC54)n2)CCC3)nc1` (centres unmarked) [Compound 187, 2-(4-{octahydro-2H-cyclopenta[b][1,4]oxazepin-5-yl]-5H,6H,7H-cyclopenta[d]pyrimidin-2-yl)pyridine], for which the pEC50 amounted to 6.8. Under `CC1CCN(c2nc(-c3ccccn3)nc3c2CCC3)C1` (centres unmarked) [Compound 188, 2-[4-(3-methylpyrrolidin-1-yl)-5H,6H,7H-cyclopenta[d]pyrimidin-2-yl]pyridine] stands 5.7; under `OCCC1CCCCCN1c1nc(-c2ccccn2)nc2c1CCC2` (centres unmarked) [Compound 189, 2-{1-[2-(pyridin-2-yl)-5H,6H,7H-cyclopenta[d]pyrimidin-4-yl]azepan-2-yl}ethan-1-ol], 6.7; under `O=C(NC1CCN(c2nc(-c3ccccn3)nc3scc(-c4ccccc4)c23)CC1)c1cccnc1` [Compound 191, N-{1-[5-phenyl-2-(pyridin-2-yl)thieno[2,3-d]pyrimidin-4-yl]piperidin-4-yl}pyridine-3-carboxamide], 6.2. As to `Cc1sc2nc(-c3ccccn3)nc(NCCCO)c2c1-c1ccccc1` [Compound 192, 3-{[6-methyl-5-phenyl-2-(pyridin-2-yl)thieno[2,3-d]pyrimidin-4-yl]amino}propan-1-ol], the pEC50 came to 5.9. Consider `CCN(CCO)c1nc(-c2ccccn2)nc2scc(-c3ccccc3)c12` [Compound 193, 2-{ethyl[5-phenyl-2-(pyridin-2-yl)thieno[2,3-d]pyrimidin-4-yl]amino}ethan-1-ol], for which the pEC50 turned out to be 6.4. Under `CCc1cc(N2Cc3ccccc3N(C)CC2C)nc(-c2ccccn2)n1` (centres unmarked) [Compound 194, 4-[6-ethyl-2-(pyridin-2-yl)pyrimidin-4-yl]-1,3-dimethyl-2,3,4,5-tetrahydro-1H-1,4-benzodiazepine] stands 6.3; under `Cc1cccc(C)c1NC(=O)CN(C)c1nc(-c2ccccn2)nc(C)c1C` [Compound 195, 2-{[5,6-dimethyl-2-(pyridin-2-yl)pyrimidin-4-yl](methyl)amino}-N-(2,6-dimethylphenyl)acetamide], 6.5; under `Cc1nc(-c2ccccn2)nc(N(C)CCN(C)c2ccccc2)c1C` [Compound 196, N,5,6-trimethyl-N-{2-[methyl(phenyl)amino]ethyl}-2-(pyridin-2-yl)pyrimidin-4-amine], 6.7. Under `Cc1sc2nc(-c3ccccn3)nc(N(C)CC(C)O)c2c1-c1ccccc1` (centres unmarked) [Compound 197, 1-{methyl[6-methyl-5-phenyl-2-(pyridin-2-yl)thieno[2,3-d]pyrimidin-4-yl]amino}propan-2-ol] stands 6.3. Under `CCC1COCCN1c1nc(-c2ccccn2)nc2scc(-c3ccccc3)c12` (centres unmarked) [Compound 198, 3-ethyl-4-[5-phenyl-2-(pyridin-2-yl)thieno[2,3-d]pyrimidin-4-yl]morpholine] stands 6; under `c1ccc(-c2csc3nc(-c4ccccn4)nc(N4CCN(CCN5CCCC5)CC4)c23)cc1` [Compound 199, 1-[5-phenyl-2-(pyridin-2-yl)thieno[2,3-d]pyrimidin-4-yl]-4-[2-(pyrrolidin-1-yl)ethyl]piperazine], 5.8. Turning to `CN1CCN(c2nc(-c3ccccn3)nc3sc(-c4ccccc4)cc23)CC1` [Compound 200, 1-methyl-4-[6-phenyl-2-(pyridin-2-yl)thieno[2,3-d]pyrimidin-4-yl]piperazine], the pEC50 is reported as 5.3.
